Laboratory results: patent US20250092058A1 (priority 2018, published 2025)
Read-outs that look alike come from different tables or passages of the source.

How the values were obtained:
HCT116 [1] = assay type: cell-based, human; conditions: Table 13; MTT; HCT116 colorectal cancer
RT4 = test: MTT assay RT4; assay type: cell-based; conditions: Table 5 lower part; RT4 bladder cancer
Description: (§1) MTT assays. […] Viable cells (2500 cells per well) were plated in each well in 96-well plates. After an overnight incubation, cells were treated with and without relevant drugs alone and in combination, respectively, at various concentrations and incubated for 72 hours. MTT, a colorimetric substrate, was added to a final concentration of 0.4 mg/ml to each well. Cells in 96-well plates were further incubated in a 5% CO2 incubator at 37° C. for 4 hours, and then the medium was aspirated. The MTT metabolic product formazan was solubilized by adding 200 ul of DMSO to each well. Absorbance in the relevant wells was measured at 570 nm using an Ultra Microplate Reader (Bio-Tek Instruments). Each experiment was performed at least in triplicate. IC50/EC50 values were calculated from a series of drug dose ranges for each analyzed compound, using GraphPad Prism 6 (GraphPad Software, Inc., La Jolla, CA).
(§2) The inhibition of cell growth and viability in various cancer cell types were tested using MTT assay for references.

HT-3 = test: MTT assay HT-3; assay type: cell-based, human; conditions: Table 7; HT-3
Outline: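 Viability after 72 h compound exposure, alone or combined, was scored by MTT (0.4 mg/ml final, 4 h) with A570 measured on DMSO-dissolved formazan.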

Wer 127 = test: MTT assay Wer 127; assay type: cell-based; conditions: Table 7
Description: (§3) MTT assays. […] Each experiment was performed at least in triplicate.

HeLa = assay type: cell-based, human; conditions: Table 13; MTT; HeLa cervical cancer
DDX5-blocked Top1 = DDX5-blocked Top1 (Homo sapiens, UniProt P17844); assay type: biochemical; conditions: 0.05 μM; DDX5 100 nM; Top1 1 IU
Sequence of DDX5-blocked Top1 (P17844 whole entry): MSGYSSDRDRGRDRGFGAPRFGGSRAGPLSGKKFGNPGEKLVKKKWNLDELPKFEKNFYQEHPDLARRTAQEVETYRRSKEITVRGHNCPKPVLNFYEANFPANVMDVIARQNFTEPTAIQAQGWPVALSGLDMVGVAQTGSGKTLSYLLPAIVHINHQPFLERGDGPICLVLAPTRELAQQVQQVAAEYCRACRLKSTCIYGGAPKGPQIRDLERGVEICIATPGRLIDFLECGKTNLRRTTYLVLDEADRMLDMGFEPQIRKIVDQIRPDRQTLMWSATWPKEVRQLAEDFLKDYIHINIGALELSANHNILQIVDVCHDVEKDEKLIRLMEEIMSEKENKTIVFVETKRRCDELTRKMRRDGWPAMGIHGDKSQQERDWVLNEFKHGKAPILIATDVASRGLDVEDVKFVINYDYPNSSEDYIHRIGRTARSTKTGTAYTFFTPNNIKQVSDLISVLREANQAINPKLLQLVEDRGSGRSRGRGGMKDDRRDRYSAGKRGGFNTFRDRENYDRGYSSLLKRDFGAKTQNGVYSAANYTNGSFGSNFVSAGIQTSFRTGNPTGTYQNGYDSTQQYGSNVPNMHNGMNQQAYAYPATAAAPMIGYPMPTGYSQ
Description: Experimental condition: Top1 was used for 1 IU; DDX5 was used in 100 nM; and 1 μg supercoiled pRB322 DNA was used.

Top1 = Top1 (Homo sapiens, UniProt P11387); assay type: biochemical
Sequence of Top1 (P11387 whole entry, species assumed): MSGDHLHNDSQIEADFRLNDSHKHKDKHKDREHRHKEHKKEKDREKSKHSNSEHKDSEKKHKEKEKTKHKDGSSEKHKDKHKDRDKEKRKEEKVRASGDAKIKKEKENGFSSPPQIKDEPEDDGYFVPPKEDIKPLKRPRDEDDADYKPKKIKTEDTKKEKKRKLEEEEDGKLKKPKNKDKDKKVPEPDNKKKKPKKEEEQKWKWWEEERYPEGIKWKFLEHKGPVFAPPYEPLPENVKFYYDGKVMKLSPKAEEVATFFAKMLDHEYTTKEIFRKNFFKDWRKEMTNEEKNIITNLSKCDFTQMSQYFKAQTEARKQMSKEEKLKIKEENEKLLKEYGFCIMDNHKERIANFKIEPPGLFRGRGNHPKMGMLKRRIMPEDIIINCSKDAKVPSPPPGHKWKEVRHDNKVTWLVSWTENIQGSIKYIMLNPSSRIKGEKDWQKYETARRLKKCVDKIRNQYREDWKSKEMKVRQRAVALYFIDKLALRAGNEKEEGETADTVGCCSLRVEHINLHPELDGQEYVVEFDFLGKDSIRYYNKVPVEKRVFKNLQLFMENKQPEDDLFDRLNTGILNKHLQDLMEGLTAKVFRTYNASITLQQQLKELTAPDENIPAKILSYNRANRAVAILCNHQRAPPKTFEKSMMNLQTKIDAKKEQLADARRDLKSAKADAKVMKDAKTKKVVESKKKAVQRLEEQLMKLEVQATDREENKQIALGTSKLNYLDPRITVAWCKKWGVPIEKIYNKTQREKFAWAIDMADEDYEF

Y79 = test: MTT assay Y79; assay type: cell-based; conditions: Table 7
Description: as §3

UOK151 = system: UOK151
Description: as §1, §2

H1376 = system: H1376
Description: as §1, §2

UMUC-3 = system: UMUC-3
Description: as §1, §2

UOK262 = system: UOK262
Description: as §1, §2

A549 = assay type: cell-based, human; conditions: Table 13; MTT; A549 lung cancer
T24 = test: MTT assay T24; assay type: cell-based; conditions: Table 5 lower part; T24 bladder cancer
Description: as §1, §2

HCT116 [2] = test: MTT assay HCT116; assay type: cell-based, human
Description: as §3

HepG2 = assay type: cell-based, human; conditions: Table 13; MTT; HepG2 liver cancer

CCc1c2c(nc3ccc(O)cc13)-c1cc3c(c(=O)n1C2)COC(=O)[C@]3(O)CC [SN38, reference compound]
IC50 (HCT116 [1]): 366.9 ± 3.3 nM
IC50/EC50 (RT4): 17.6 nM
IC50/EC50 (HT-3): 18 nM
IC50/EC50 (Wer 127): 6.85 nM
IC50 (HeLa): 234 ± 5.2 nM
unblocking of DDX5-blocked Top1 activity (DDX5-blocked Top1): cannot
concentrations blocking Top1 nicking SC DNA activity (Top1): could only be blocked by 5 and 50 μM
IC50/EC50 (Y79): 5.25 nM
IC50/EC50 (UOK151; Table 5 lower part, UOK151 kidney cancer): >500 nM
IC50/EC50 (UOK151; Table 8, UOK151): >500 nM
IC50/EC50 (UOK151; Table 10, UOK151): >500 nM
IC50/EC50 (H1376; Table 5 lower part, H1376 bladder cancer): >500 nM
IC50/EC50 (H1376; Table 8, H1376): >500 nM
IC50/EC50 (UMUC-3; Table 5 lower part, UMUC-3 bladder cancer): 8.2 nM
IC50/EC50 (UMUC-3; Table 8, UMUC-3): 8.2 nM
IC50/EC50 (UOK262; Table 5 lower part, UOK262 kidney cancer): 33.8 nM
IC50/EC50 (UOK262; Table 8, UOK262): 33.8 nM
IC50/EC50 (UOK262; Table 10, UOK262): 33.8 nM
IC50 (A549): 475 ± 9 nM
IC50/EC50 (T24): 2.32 nM
IC50/EC50 (HCT116 [2]; Table 7): 619.8 nM
IC50/EC50 (HCT116 [2]; Table 8): 619.8 nM
IC50 (HepG2): 268.4 ± 0.6 nM
